Test results from ChEMBL document CHEMBL4261573, “Synthesis and growth-inhibitory activities of imidazo[5,1-d]-1,2,3,5-tetrazine-8-carboxamides related to the anti-tumour drug temozolomide, with appended silicon, benzyl and heteromethyl groups at the 3-position” (Medchemcomm, 2018).

Columns and labels:
U373 MG [1] = assay: Growth inhibition of vehicle-transfected human U373 cells after 7 days by MTT assay; type: functional, U-373MG ATCC; settings: 168 h
SNB-19 [2] = assay: Growth inhibition of MGMT-transfected human SNB19 cells expressing MGMT after 7 days by MTT assay; type: functional; settings: SNB-19, 168 h
SNB-19 [3] = assay: Growth inhibition of vehicle-transfected human SNB19 cells after 7 days by MTT assay; type: functional; settings: SNB-19, 168 h
U373 MG [4] = assay: Growth inhibition of MGMT-transfected human U373 cells expressing MGMT after 7 days by MTT assay; type: functional, U-373MG ATCC; settings: 168 h
[5] = Drug level in deuterated phosphate buffer/D2O at pD 7 treated with 3-Trimethylsilylmethylimidazotetrazine measured every 15 mins for 12 to 18 hrs by 1H NMR method
[6] = Drug level in deuterated phosphate buffer/D2O at pD 7 treated with 3-(2-Trimethylsilylethoxy)methylimidazotetrazine measured every 15 mins for 12 to 18 hrs by 1H NMR method

Row | Compound | GI50 (U373 MG [1]) [µM] | GI50 (SNB-19 [2]) [µM] | GI50 (SNB-19 [3]) [µM] | GI50 (U373 MG [4]) [µM] | Drug metabolism [5] | Drug metabolism [6]
1 | COc1ccc(Cn2nnc3c(C(N)=O)ncn3c2=O)cc1 | > 50 | > 50 | > 50 | > 50 |  | 
2 | C[Si](C)(C)Cn1nnc2c(C(N)=O)ncn2c1=O | 45.6 | 302 | 28.4 | 250 |  | 
3 | NC(=O)c1nc[nH]c1N/N=N/Cc1ccsc1 | > 50 | > 50 | > 50 | > 50 |  | 
4 | NC(=O)c1[nH]cnc1N |  |  |  |  | Metabolite_Detected | Metabolite_Detected
5 | CO [METHYL ALCOHOL] |  |  |  |  | Metabolite_Detected | 
6 | Cc1cc(Cn2nnc3c(C(N)=O)ncn3c2=O)on1 | > 50 | > 50 | > 50 | > 50 |  | 
7 | COc1ccc(Cn2nnc3c(C(N)=O)ncn3c2=O)c(OC)c1 | > 50 | > 50 | > 50 | > 50 |  | 
8 | C=O.O |  |  |  |  |  | Metabolite_Detected
9 | NC(=O)c1nc[nH]c1N/N=N/Cc1ccco1 | > 50 | > 50 | > 50 | > 50 |  | 
10 | CC(c1ccc(Br)cc1)n1nnc2c(C(N)=O)ncn2c1=O (racemic) | > 50 | > 50 | > 50 | > 50 |  | 
11 | COc1cccc(Cn2nnc3c(C(N)=O)ncn3c2=O)c1 | > 50 | > 50 | > 50 | > 50 |  | 
12 | CC[C@@H](c1ccccc1)n1nnc2c(C(N)=O)ncn2c1=O | > 50 | > 50 | > 50 | > 50 |  | 
13 | C[C@H](c1ccccc1)n1nnc2c(C(N)=O)ncn2c1=O | > 50 | 49.7 | 32.7 | > 50 |  | 
14 | NC(=O)c1nc[nH]c1N/N=N/CCc1ccccc1 | > 50 | > 50 | > 50 | > 50 |  | 
15 | NC(=O)c1nc[nH]c1N/N=N/Cc1ccccc1 | > 50 | > 50 | > 50 | > 50 |  | 
16 | NC(=O)c1ncn2c(=O)n(Cc3ccsc3)nnc12 | > 50 | > 50 | > 50 | > 50 |  | 
17 | NC(=O)c1ncn2c(=O)n(C(c3ccccc3)c3ccccc3)nnc12 | > 50 | > 50 | > 50 | > 50 |  | 

Row | Compound | GI50 (U373 MG [1]) [µM] | GI50 (SNB-19 [2]) [µM] | GI50 (SNB-19 [3]) [µM] | GI50 (U373 MG [4]) [µM] | Drug metabolism [5] | Drug metabolism [6]
18 | NC(=O)c1ncn2c(=O)n(Cc3c[nH]nn3)nnc12 | > 50 | > 50 | > 50 | > 50 |  | 
19 | C[C@@H](c1ccccc1)n1nnc2c(C(N)=O)ncn2c1=O | > 50 | 45.3 | 34.7 | > 50 |  | 
20 | NC(=O)c1nc[nH]c1N/N=N/Cc1cccs1 | > 50 | > 50 | > 50 | > 50 |  | 
21 | NC(=O)c1ncn2c(=O)n(CCc3ccccc3)nnc12 | > 50 | > 50 | > 50 | > 50 |  | 
22 | C[Si](C)(C)CCO |  |  |  |  |  | Metabolite_Detected
23 | C[Si](C)(C)CCOCn1nnc2c(C(N)=O)ncn2c1=O | 25.3 | 27.5 | 29.9 | 24.2 |  | 
24 | COc1ccc([C@@H](C)n2nnc3c(C(N)=O)ncn3c2=O)cc1 | > 50 | > 50 | > 50 | > 50 |  | 
25 | NC(=O)c1ncn2c(=O)n(Cc3ccccc3)nnc12 | > 50 | > 50 | > 50 | > 50 |  | 
26 | COc1ccc(Cn2nnc3c(C(N)=O)ncn3c2=O)cc1OC | > 50 | > 50 | > 50 | > 50 |  | 
27 | COP(=O)(O)O [PHOSPHORIC ACID MONOMETHYL ESTER] |  |  |  |  | Metabolite_Detected | 
28 | NC(=O)c1ncn2c(=O)n(Cc3cccs3)nnc12 | > 50 | > 50 | > 50 | > 50 |  | 
29 | COc1ccccc1Cn1nnc2c(C(N)=O)ncn2c1=O | > 50 | > 50 | > 50 | > 50 |  | 
30 | NC(=O)c1nc[nH]c1N/N=N/Cc1ccoc1 | > 50 | > 50 | > 50 | > 50 |  | 
31 | Cc1noc(Cn2nnc3c(C(N)=O)ncn3c2=O)n1 | > 50 | > 50 | > 50 | > 50 |  | 
32 | NC(=O)c1ncn2c(=O)n(Cc3ccco3)nnc12 | > 50 | > 50 | > 50 | > 50 |  | 
33 | COc1cc(Cn2nnc3c(C(N)=O)ncn3c2=O)cc(OC)c1OC | > 50 | > 50 | > 50 | > 50 |  | 
34 | Cn1nnc2c(C(N)=O)ncn2c1=O [TEMOZOLOMIDE] | 68 | 470 | 35.7 | 369 |  | 
